# Measured values as given in US8513234B2, “HIV integrase inhibitors” (Merck Sharp & Dohme Corp., priority 2008, dated 2013).
# pIC50: −log10 of the molar value.
# Tests used:
# HIV-1 = assay: Inhibition of acute HIV-1 infection of T-lymphoid cells (spread assay); type: cell-based
# Description: Assay for Inhibition of HIV-1 Replication
# Assays for the inhibition of acute HIV-1 infection of T-lymphoid cells were conducted in accordance with Vacca, J. P. et al, Proc. Natl. Acad. Sci. USA 1994, 91: 4096.
# [1] = tested on: virus containing Q148R mutation in the integrase gene; details: k = IC50(mutant)/IC50(wild type)
# Description: (§1) An assay for measuring the inhibition of acute HIV infection with HeLa P4-2 cells in a single cycle infectivity assay was conducted using methods described in Joyce et al., J. Biol. Chem. 2002, 277: 45811, Hazuda et al., Science 2000, 287: 646, and Kimpton et al, J. Virol. 1992, 66: 2232. Proviral plasmids encoding viruses containing specific mutations in the integrase gene (N155H, Q148R, Y143R, E92Q, or G140S/Q148H) were generated by site-directed mutagenesis, and viruses were produced by transfecting 293T cells with the appropriate proviral plasmids.
# [2] = tested on: virus containing Y143R mutation in the integrase gene; details: k = IC50(mutant)/IC50(wild type)
# Description: as §1
# [3] = tested on: virus containing E92Q mutation in the integrase gene; details: k = IC50(mutant)/IC50(wild type)
# Description: as §1
# [4] = tested on: virus containing N155H mutation in the integrase gene; details: k = IC50(mutant)/IC50(wild type)
# Description: as §1
# [5] = tested on: virus containing G140S/Q148H mutation in the integrase gene; details: k = IC50(mutant)/IC50(wild type)
# Description: as §1
# wild type IIIB = assay: Single cycle infectivity assay in HeLa P4-2 cells, wild type virus; type: cell-based, HIV; details: Human immunodeficiency virus 1, IIIB, HeLaP4-2, HeLa P4-2 cells, single cycle infectivity, wild type IIIB; read-out: wild type IIIB IC50
# [6] = biological target: T1, recombinant integrase (HIV-1 integrase) (Human immunodeficiency virus type 1 group M subtype B, UniProt P04585); assay: HIV-1 integrase assay: strand transfer catalyzed by recombinant integrase; type: biochemical; details: strand transfer activity, read-out: IC50
# T1 construct: Assays for the strand transfer activity of integrase were conducted in accordance with WO 02/30930 for recombinant integrase
# Description: HIV-1 Integrase Assay: Strand Transfer Catalyzed by Recombinant Integrase
# Assays for the strand transfer activity of integrase were conducted in accordance with WO 02/30930 for recombinant integrase. […] For example, the compounds prepared in Examples 1 to 5 were tested in the integrase assay and found to have the IC50 values in Table B. (Compounds 6A and 6B were not tested in this assay.)
# Further description on conducting the assay using preassembled complexes is found in Wolfe, A. L. et al., J. Virol. 1996, 70: 1424-1432, Hazuda et al., J. Virol. 1997, 71: 7005-7011; Hazuda et al., Drug Design and Discovery 1997, 15: 17-24; and Hazuda et al., Science 2000, 287: 646-650.
Compound,IC95 (nM) in the presence of 10% FBS (HIV-1) [nM],"Number of fold shift in IC50 versus wild type IIIB, Q148R [1]","Number of fold shift in IC50 versus wild type IIIB, Y143R [2]","Number of fold shift in IC50 versus wild type IIIB, E92Q [3]","Number of fold shift in IC50 versus wild type IIIB, N155H [4]","Number of fold shift in IC50 versus wild type IIIB, G140S/Q148H [5]",pIC50 (wild type IIIB),pIC50 [6]
"Cc1cc(CNC(=O)c2nc3n(c(=O)c2O)[C@@H](C)COC[C@H]3N(C)C(=O)C(=O)N(C)C)ccc1F [Compound 4A, N-((6S,10S)-2-{[(4-fluoro-3-methylbenzyl)amino]carbonyl}-3-hydroxy-6-methyl-4-oxo-6,7,9,10-tetrahydro-4H-pyrimido[1,2-d][1,4]oxazepin-10-yl)-N,N′,N′-trimethylethanediamide]",10,2,2,1,2,12,7.72,7.42
"CO[C@]1(C)CC[C@@H](N(C)C(=O)C(=O)N(C)C)c2nc(C(=O)NCc3ccc(F)c(C)c3)c(O)c(=O)n2C1 [Compound 2A, N-((7R,10R)-2-{[(4-fluoro-3-methylbenzyl)amino]carbonyl}-3-hydroxy-7-methoxy-7-methyl-4-oxo-4,6,7,8,9,10-hexahydropyrimido[1,2-a]azepin-10-yl)-N,N′,N′-trimethylethanediamide]",14,1,2,1,2,10,7.77,7.43
CC[C@H]1COC[C@H](N(C)C(=O)C(=O)N(C)C)c2nc(C(=O)NCc3ccc(F)cc3)c(O)c(=O)n21 [Compound 5B],10,1,2,1,3,11,7.38,7.40
"CCN(C(=O)C(=O)N(C)C)[C@@H]1CC[C@H](OC)Cn2c1nc(C(=O)NCc1ccc(F)cc1)c(O)c2=O [Compound 6A, N-ethyl-N-((7S,10R)-2-{[(4-fluorobenzyl)amino]carbonyl}-3-hydroxy-7-methoxy-4-oxo-4,6,7,8,9,10-hexahydropyrimido [1,2-a]azepin-10-yl)-N′,N′-dimethylethanediamide]",12,1,3,3,2,2,7.80,
"CC[C@H]1COC[C@@H](N(C)C(=O)C(=O)N(C)C)c2nc(C(=O)NCc3ccc(F)cc3)c(O)c(=O)n21 [Compound 5A, N-((6S,10S)-6-ethyl-2-{[(4-fluorobenzyl)amino]carbonyl}-3-hydroxy-4-oxo-6,7,9,10-tetrahydro-4-pyrimido[1,2-][1,4]oxazepin-10-yl)-N N′N′-trimethylethanediamide]",12,1,1,2,1,4,7.55,7.34
